Earlier results as cited in patent publication US12611399B2, “Movement disorders” (Definium Therapeutics US, Inc., priority 2021, dated 2026).

Columns and labels:
Settings in all cases: result in words
[1] = system: D1-3 receptors
[2] = molecular target: 5-HT transporter (SERT) (Homo sapiens, UniProt P31645)
[3] = system: serotonin 5-HT1 receptors
[4] = molecular target: 5-HT2A receptor (Homo sapiens, UniProt P28223)
[5] = molecular target: D2 receptors (Homo sapiens, UniProt P14416)
Chain of D2 receptors (P14416 whole entry): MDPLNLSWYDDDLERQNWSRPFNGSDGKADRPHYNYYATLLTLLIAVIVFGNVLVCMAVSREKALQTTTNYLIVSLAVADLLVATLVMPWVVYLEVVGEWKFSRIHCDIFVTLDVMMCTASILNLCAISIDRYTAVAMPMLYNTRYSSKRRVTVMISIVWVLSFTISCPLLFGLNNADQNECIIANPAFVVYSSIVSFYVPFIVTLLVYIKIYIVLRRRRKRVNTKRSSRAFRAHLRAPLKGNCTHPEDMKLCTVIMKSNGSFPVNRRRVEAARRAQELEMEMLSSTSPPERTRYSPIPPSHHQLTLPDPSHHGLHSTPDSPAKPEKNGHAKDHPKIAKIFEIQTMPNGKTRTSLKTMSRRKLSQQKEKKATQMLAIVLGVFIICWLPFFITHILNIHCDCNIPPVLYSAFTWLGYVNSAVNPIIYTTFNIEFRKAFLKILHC

Chain of 5-HT transporter (SERT) (P31645 whole entry, species assumed): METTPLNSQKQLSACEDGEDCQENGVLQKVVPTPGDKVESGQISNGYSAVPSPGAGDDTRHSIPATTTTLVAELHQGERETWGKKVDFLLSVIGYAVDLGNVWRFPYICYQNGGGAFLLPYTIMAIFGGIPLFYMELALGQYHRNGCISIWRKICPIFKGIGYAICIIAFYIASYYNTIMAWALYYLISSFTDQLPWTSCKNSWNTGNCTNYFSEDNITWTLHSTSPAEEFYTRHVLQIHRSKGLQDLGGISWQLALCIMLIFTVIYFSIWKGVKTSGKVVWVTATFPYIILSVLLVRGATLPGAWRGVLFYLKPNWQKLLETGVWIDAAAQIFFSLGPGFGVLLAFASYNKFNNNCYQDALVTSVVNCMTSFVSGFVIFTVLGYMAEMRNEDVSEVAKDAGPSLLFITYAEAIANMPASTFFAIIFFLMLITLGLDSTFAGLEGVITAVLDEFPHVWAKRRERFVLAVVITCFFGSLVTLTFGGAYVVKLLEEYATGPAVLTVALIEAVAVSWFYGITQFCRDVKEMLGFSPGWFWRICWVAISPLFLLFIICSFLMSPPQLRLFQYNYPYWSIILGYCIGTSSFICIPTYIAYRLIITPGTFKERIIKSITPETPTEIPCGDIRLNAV
Chain of 5-HT2A receptor (P28223 whole entry): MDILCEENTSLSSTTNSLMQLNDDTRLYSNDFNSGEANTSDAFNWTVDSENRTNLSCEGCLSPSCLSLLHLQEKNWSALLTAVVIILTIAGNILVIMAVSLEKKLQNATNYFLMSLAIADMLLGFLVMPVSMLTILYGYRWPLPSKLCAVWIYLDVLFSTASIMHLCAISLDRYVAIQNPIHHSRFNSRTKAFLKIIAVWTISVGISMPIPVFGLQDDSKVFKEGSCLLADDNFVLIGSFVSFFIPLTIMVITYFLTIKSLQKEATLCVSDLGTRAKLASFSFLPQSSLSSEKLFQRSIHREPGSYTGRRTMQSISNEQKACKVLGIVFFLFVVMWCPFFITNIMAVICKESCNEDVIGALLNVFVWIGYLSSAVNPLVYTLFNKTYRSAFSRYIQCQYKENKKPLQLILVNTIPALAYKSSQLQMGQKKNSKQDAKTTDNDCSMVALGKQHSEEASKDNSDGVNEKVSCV

SMILES	stimulation of D1-3 receptors [1]	interaction with the 5-HT transporter (SERT) [2]	agonist potency at serotonin 5-HT1 receptors [3]	stimulation of the 5-HT2A receptor [4]	affinity for D2 receptors [5]
CCN(CC)C(=O)[C@@H]1C=C2c3cccc4[nH]cc(c34)C[C@H]2N(C)C1 [LSD, lysergic acid diethylamide]	stimulates	does not interact	potent agoinsts	potently stimulates	
COc1cc(CCN)cc(OC)c1OC [mescaline]			low potency		no affinity
CN(C)CCc1c[nH]c2cccc(O)c12 [psilocin]		inhibits	potent agoinsts		
